This assay has as its system HepG2 cells. Briefly: Untargeted lipidomic analysis (UHPLC-MS, OPLS-DA). It is filed as cell-based, human. The note with it: 40 μM, 3 h, versus DMSO. The protocol:
Figure 2 Development and characterization of the human ATGL inhibitor NG-497. (a) Structure and IC50 values of human ATGL inhibitors. (b) Dose-dependent inhibition of human ATGL by respective inhibitors. (c) ATGL activity was determined at the indicated substrate concentrations in the absence and presence of NG-497 (0.5 μM). Ki was determined by nonlinear regression analysis using GraphPad Prism. Lineweaver–Burk analysis of ATGL inhibition is shown in the inset. (d) Toxicity of NG-497 in HepG2 cells was determined after 24 h incubation at indicated concentrations. Cisplatin and DMSO were used as positive and negative controls, respectively. Cytotoxicity was determined using the Roche LDH Kit and calculated as relative LDH release compared to fully lysed cells. (e) Stability of NG-497 was analyzed via ultrahigh-performance liquid chromatography–mass spectrometry (UHPLC-MS) after incubation in human serum for 0 or 3 h at 37 °C. Atglistatin and a chemically related unstable compound were used as controls. […] NG-497 concentrations/well were determined at the indicated time points using UHPLC-MS. […] Statistical significance was determined via t test (*p < 0.05; **p < 0.01; ***p < 0.001) or ANOVA followed by Bonferroni post hoc test (^###p < 0.001). […] The detected 297 lipid species of both groups were analyzed with supervised multivariate analysis OPLS-DA and are shown as a loading plot. […]

Molecules are shown by their SMILES.

In the case of `CCOc1ccc(-c2cc(OC)cc(C(=O)OC(C)C)n2)cc1` [NG-497], the “lipidomic changes (OPLS-DA top 25 contributing lipid species)” value is on record as 20 of the top 25 hits were due to an increase of TAG species, while three DAG species were decreased.

Source of the values: PMC9011347, “Small-Molecule Inhibitors Targeting Lipolysis in Human Adipocytes” (Journal of the American Chemical Society, 2022).
